# In patent publication US8198311B2, “Modulators of glucocorticoid receptor, AP-1, and/or NF-κB activity and use thereof” (Bristol-Myers Squibb Company, priority 2006, dated 2012):
# Experiments:
# [1] = target: T1, human glucocorticoid receptor (Homo sapiens, UniProt P04150); assay: Glucocorticoid Receptor Binding Assay (I), fluorescence polarization competitor kit (Fluormone GS Red); conditions: purified human recombinant full-length GR
# T1 construct: purified human recombinant full-length glucocorticoid receptor (2 nM); purchased Invitrogen Part # 2893
# T1 sequence (P04150 1-777): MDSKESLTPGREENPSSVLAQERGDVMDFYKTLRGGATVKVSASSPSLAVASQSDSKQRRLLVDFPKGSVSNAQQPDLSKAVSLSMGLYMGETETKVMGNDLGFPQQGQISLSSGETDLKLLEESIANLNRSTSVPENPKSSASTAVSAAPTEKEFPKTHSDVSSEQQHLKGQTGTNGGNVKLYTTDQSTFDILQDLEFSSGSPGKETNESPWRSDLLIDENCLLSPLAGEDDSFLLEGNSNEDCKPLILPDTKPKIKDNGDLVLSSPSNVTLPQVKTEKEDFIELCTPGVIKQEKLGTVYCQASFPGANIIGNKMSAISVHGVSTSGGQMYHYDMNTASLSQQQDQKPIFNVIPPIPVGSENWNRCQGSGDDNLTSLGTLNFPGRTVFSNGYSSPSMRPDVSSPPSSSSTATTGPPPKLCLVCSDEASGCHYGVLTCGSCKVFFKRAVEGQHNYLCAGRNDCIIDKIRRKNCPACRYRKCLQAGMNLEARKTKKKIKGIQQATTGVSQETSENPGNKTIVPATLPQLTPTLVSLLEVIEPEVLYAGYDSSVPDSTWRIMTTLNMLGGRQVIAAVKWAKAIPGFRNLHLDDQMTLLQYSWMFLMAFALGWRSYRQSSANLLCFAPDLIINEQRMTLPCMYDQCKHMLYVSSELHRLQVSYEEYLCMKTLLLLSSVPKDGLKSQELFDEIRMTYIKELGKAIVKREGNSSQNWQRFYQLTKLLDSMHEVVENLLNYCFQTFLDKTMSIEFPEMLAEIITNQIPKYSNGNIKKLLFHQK
# In short: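 Fluorescence polarization competition: full-length recombinant human GR (2 nM) incubated with 1 nM Fluormone GS Red plus test compound (8.5E-05 to 5 μM) for 2 h at room temperature in the dark before FP read-out.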
# [2] = tested on: AP-1 induced transcriptional activity; assay: Cellular Transrepressional Assay (AP-1 luciferase reporter in A549 cells, PMA-activated); format: cell-based; conditions: Homo sapiens, A549, 7 h, pAP-1-Luc, 10 ng/ml PMA, read-out: AP-1 (EC50, nM) (Cellular Transrepression Assay)
# In short: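 A549 cells stably carrying a 7×AP-1-luciferase reporter, stimulated with 10 ng/ml PMA with or without compound (0.1 nM-40 μM) for 7 h. Luciferase luminescence read 10 min after reagent addition; repression is percentage decrease of PMA-alone signal, EC50 by curve fitting.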
# [3] = target: T2, human full-length glucocorticoid receptor (Homo sapiens, UniProt P04150); assay: Glucocorticoid Receptor Binding Assay (II), fluorescence polarization competitor kit (Fluormone GS1); conditions: cell lysate with recombinant human full-length GR
# T2 construct: recombinantly expressed human full-length glucocorticoid receptor; purchased PanVera Co., Madison, Wis; P2816
# T2 sequence (P04150 1-777): T1 sequence (P04150 1-777)
# Description: In order to measure the binding of compounds on the glucocorticoid receptor a commercially available kit was used (Glucocorticoid receptor competitor assay kit, PanVera Co., Madison, Wis., P2816). Briefly, a cell lysate containing recombinantly expressed human full-length glucocorticoid receptor was mixed with a fluorescently labeled glucocorticoid (1 nM Fluormone GS1) in the presence or absence of test compound. After one hour at room temperature, the fluorescence polarization (FP) of the samples were measured. […] Test molecules were analyzed in the concentration range from 2.4 nM to 40 microMolar.
Structure (SMILES),Ki [1],EC50 [2],Ki [3]
"CC(C)CC(c1ccc2c(cnn2-c2ccc(F)cc2)c1)C(C)(C)CNC(=O)N(C)C(C)(C)C (centres unmarked) [Example 31, 1-tert-butyl-3-(3-(1-(4-fluorophenyl)-1H-indazol-5-yl)-2,2,5-trimethylhexyl)-1-methylurea]",28 nM,394 nM,19 nM
"CC(C)CC(c1ccc2c(cnn2-c2ccc(F)cc2)c1)C(C)(C)CNC(=O)NC(C)(C)C (centres unmarked) [Example 28, 1-tert-butyl-3-(3-(1-(4-fluorophenyl)-1H-indazol-5-yl)-2,2,5-trimethylhexyl)urea]",4.2 nM,21 nM,4.9 nM
"CC(C)(CNC(=O)NCC(F)(F)F)[C@@H](c1ccccc1)c1ccc2c(cnn2-c2ccc(F)cc2)c1 [Example 8, (S)-1-(3-(1-(4-fluorophenyl)-1H-indazol-5-yl)-2,2-dimethyl-3-phenylpropyl)-3-(2,2,2-trifluoroethyl)urea]",17 nM,48 nM,9 nM
"CC(C)CC(c1ccc2c(cnn2-c2ccc(F)cc2)c1)C(C)(C)CNC(=O)NC(C)(C)CO (centres unmarked) [Example 29, 1-(3-(1-(4-fluorophenyl)-1H-indazol-5-yl)-2,2,5-trimethylhexyl)-3-(1-hydroxy-2-methylpropan-2-yl)urea]",2.5 nM,86 nM,8 nM
"CC(C)CC(c1ccc2c(cnn2-c2ccc(F)cc2)c1)C(C)(C)CNC(=O)NC(C)(C)CN1CCCCC1 (centres unmarked) [Example 32, 1-(3-(1-(4-fluorophenyl)-1H-indazol-5-yl)-2,2,5-trimethylhexyl)-3-(2-methyl-1-(piperidin-1-yl)propan-2-yl)urea]",73 nM,> 10000 nM,452 nM
"CC(C)CC(c1ccc2c(cnn2-c2ccc(F)cc2)c1)C(C)(C)CNC(=O)NC1CCC1 (centres unmarked) [Example 27, 1-cyclobutyl-3-(3-(1-(4-fluorophenyl)-1H-indazol-5-yl)-2,2,5-trimethylhexyl)urea]",4.6 nM,219 nM,6.4 nM
"CC(C)CC(c1ccc2c(cnn2-c2ccc(F)cc2)c1)C(C)(C)CNC(=O)NC1CC1 (centres unmarked) [Example 26, 1-cyclopropyl-3-(3-(1-(4-fluorophenyl)-1H-indazol-5-yl)-2,2,5-trimethylhexyl)urea]",3.1 nM,965 nM,8.6 nM
"CC(C)(C)NC(=O)NCC(C)(C)[C@@H](c1ccccc1)c1ccc2c(cnn2-c2ccc(F)cc2)c1 [Example 9, (S)-1-tert-butyl-3-(3-(1-(4-fluorophenyl)-1H-indazol-5-yl)-2,2-dimethyl-3-phenylpropyl)urea]",8.3 nM,29 nM,5.6 nM
"CC(C)(CNC(=O)C(F)(F)C(F)(F)F)[C@@H](c1ccccc1)c1ccc2c(cnn2-c2ccc(F)cc2)c1 [Example 19, (S)-2,2,3,3,3-pentafluoro-N-(3-(1-(4-fluorophenyl)-1H-indazol-5-yl)-2,2-dimethyl-3-phenylpropyl)propanamide]",–,> 10000 nM,11 nM
"CC(C)(CNC(=O)C(F)(F)F)[C@H](c1ccccc1)c1ccc2c(cnn2-c2ccc(F)cc2)c1 [(R)-16, (R)-2,2,2-trifluoro-N-(3-(1-(4-fluorophenyl)-1H-indazol-5-yl)-2,2-dimethyl-3-phenylpropyl)acetamide]",–,61 nM,7.4 nM
"COC(=O)C(=O)NCC(C)(C)[C@H](c1ccccc1)c1ccc2c(cnn2-c2ccc(F)cc2)c1 [Example 23, (R)-methyl 2-(3-(1-(4-fluorophenyl)-1H-indazol-5-yl)-2,2-dimethyl-3-phenylpropylamino)-2-oxoacetate]",–,5960 nM,62 nM
"CC(C)CC(c1ccc2c(cnn2-c2ccc(F)cc2)c1)C(C)(C)CNC(=O)N1CCCC(C)(C)C1 (centres unmarked) [Example 30, N-(3-(1-(4-fluorophenyl)-1H-indazol-5-yl)-2,2,5-trimethylhexyl)-3,3-dimethylpiperidine-1-carboxamide]",8.5 nM,> 10000 nM,27 nM

# Results, then the compound that gave them:
Ki [1],EC50 [2],Ki [3],Structure (SMILES)
41 nM,234 nM,24 nM,"CC(C)CC(c1ccc2c(cnn2-c2ccc(F)cc2)c1)C(C)(C)CNC(=O)OCC(F)(F)F (centres unmarked) [Example 60, 2,2,2-trifluoroethyl 3-(1-(4-fluorophenyl)-1H-indazol-5-yl)-2,2,5-trimethylhexylcarbamate]"
37 nM,> 10000 nM,34 nM,"CC(C)(C(c1ccccc1)c1ccc2c(cnn2-c2ccc(F)cc2)c1)C(O)C1CC1 (centres unmarked) [Example 122, 1-cyclopropyl-3-(1-(4-fluorophenyl)-1H-indazol-5-yl)-2,2-dimethyl-3-phenylpropan-1-ol]"
1.1 nM,129 nM,7.1 nM,"CC(C)CC(c1ccc2c(cnn2-c2ccc(F)cc2)c1)C(C)(C)CNC(=O)NC(C)C (centres unmarked) [Example 34, 1-(3-(1-(4-fluorophenyl)-1H-indazol-5-yl)-2,2,5-trimethylhexyl)-3-isopropylurea]"
–,95 nM,11 nM,"O=C(NCCC(c1ccccc1)c1ccc2c(cnn2-c2ccc(F)cc2)c1)C(F)(F)F (centres unmarked) [Example 112, 2,2,2-Trifluoro-N-(3-(1-(4-fluorophenyl)-1H-indazol-5-yl)-3-phenylpropyl)acetamide]"
53 nM,> 10000 nM,26 nM,"CC(O)C(C)(C)C(c1ccccc1)c1ccc2c(cnn2-c2ccc(F)cc2)c1 (mixture of isomers) [Example 119, 4-(1-(4-Fluorophenyl)-1H-indazol-5-yl)-3,3-dimethyl-4-phenylbutan-2-ol]"
